Results published in ChEMBL document CHEMBL1201862, “PubChem BioAssay data set” (2004).
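Five concentrations, 48 hours, 96-well plates. The concentration for 50% growth inhibition is given as GI50.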 Activity calls are given as the source filed them. Cut-off read from the data, not from the text of the source: active = GI50 up to about 1.1 µM and inactive = higher.

Legend:
Test in all cases: NCI tumour cell line growth inhibition, 48 h
A498 = tested on: A498
A549 = tested on: A549
CAKI-1 = tested on: CAKI-1
HOP-92 = tested on: HOP-92
HT-29 = tested on: HT-29
M14 = tested on: M14
MDA-N = tested on: MDA-N
Malme-3M = tested on: Malme-3M
NCI-H226 = tested on: NCI-H226
OVCAR-3 = tested on: OVCAR-3
PC-3 = tested on: PC-3
RXF 393 = tested on: RXF 393
SF-295 = tested on: SF-295
SK-MEL-28 = tested on: SK-MEL-28
SK-MEL-2 = tested on: SK-MEL-2
SR = tested on: SR
SW-620 = tested on: SW-620
TK-10 = tested on: TK-10
HL-60 = tested on: HL-60
MCF7 = tested on: MCF7

SMILES | GI50 (A498) | GI50 (A549) | GI50 (CAKI-1) | GI50 (HOP-92) | GI50 (HT-29) | GI50 (M14) | GI50 (MDA-N) | GI50 (Malme-3M) | GI50 (NCI-H226) | GI50 (OVCAR-3) | GI50 (PC-3) | GI50 (RXF 393) | GI50 (SF-295) | GI50 (SK-MEL-28) | GI50 (SK-MEL-2) | GI50 (SR) | GI50 (SW-620) | GI50 (TK-10) | GI50 (HL-60) | GI50 (MCF7)
CC(CCc1nc2ccccc2s1)(c1ccc(O)cc1)c1ccc(O)cc1 | 20.7 µM (inactive) | 18.3 µM (inactive) | 20.6 µM (inactive) | 20.1 µM (inactive) | 20.1 µM (inactive) | 16.1 µM (inactive) | 16.5 µM (inactive) | 16.5 µM (inactive) | 22.3 µM (inactive) | 17.5 µM (inactive) | 14.8 µM (inactive) | 18 µM (inactive) | 15.6 µM (inactive) | 19 µM (inactive) | 17 µM (inactive) | 13.6 µM (inactive) | 19.8 µM (inactive) | 19.9 µM (inactive) | – | –
Cc1cnc2cc(Cl)ccc2c1SCC(=O)O | > 100 µM (inactive) | > 100 µM (inactive) | > 100 µM (inactive) | > 100 µM (inactive) | > 100 µM (inactive) | > 100 µM (inactive) | > 100 µM (inactive) | > 100 µM (inactive) | > 100 µM (inactive) | > 100 µM (inactive) | > 100 µM (inactive) | > 100 µM (inactive) | > 100 µM (inactive) | > 100 µM (inactive) | > 100 µM (inactive) | > 100 µM (inactive) | > 100 µM (inactive) | > 100 µM (inactive) | > 100 µM (inactive) | –
Cc1ccc(S(=O)(=O)c2ccc([N+](=O)[O-])o2)cc1 | 17 µM (inactive) | 8.81 µM (inactive) | 0.597 µM (active) | 2.38 µM (inactive) | 1.7 µM (inactive) | 1.83 µM (inactive) | – | 1.08 µM (active) | 10.8 µM (inactive) | 1.76 µM (inactive) | 1.6 µM (inactive) | 1.62 µM (inactive) | 19.8 µM (inactive) | 1.98 µM (inactive) | 9.89 µM (inactive) | – | 0.468 µM (active) | 1.57 µM (inactive) | – | 2.55 µM (inactive)
CC(C)(C)c1cc2c(OP(c3ccccc3)c3ccccc3)c(c1)Cc1cc(C(C)(C)C)cc(c1OP(c1ccccc1)c1ccccc1)Cc1cc(C(C)(C)C)cc(c1OP(c1ccccc1)c1ccccc1)Cc1cc(C(C)(C)C)cc(c1OP(c1ccccc1)c1ccccc1)C2 | > 5 µM (inactive) | > 5 µM (inactive) | > 5 µM (inactive) | > 5 µM (inactive) | > 5 µM (inactive) | > 5 µM (inactive) | – | > 5 µM (inactive) | > 5 µM (inactive) | > 5 µM (inactive) | – | 19.8 µM (inactive) | > 5 µM (inactive) | > 5 µM (inactive) | > 5 µM (inactive) | 2.66 µM (inactive) | > 5 µM (inactive) | > 5 µM (inactive) | > 5 µM (inactive) | –
COc1cccc2c1C(=O)c1c(O)c3c(c(O)c1C2=O)C[C@@](O)(/C(C)=N/NC(=O)c1ccc(Cl)c(Cl)c1)C[C@@H]3OC1CC(N)C(O)C(C)O1 (stereo partly drawn) | 1.22 µM (inactive) | 0.186 µM (active) | 0.0646 µM (active) | 0.424 µM (active) | 0.071 µM (active) | 0.148 µM (active) | – | 0.0237 µM (active) | 0.092 µM (active) | 0.226 µM (active) | 0.411 µM (active) | 1.15 µM (inactive) | 0.078 µM (active) | 0.0676 µM (active) | 0.718 µM (active) | < 0.01 µM (active) | 0.0923 µM (active) | 0.225 µM (active) | 0.0348 µM (active) | 0.0693 µM (active)
COC(=O)C12Oc3ccc(-c4ccc5c(c4O)C(=O)C4=CCC(C)C(O)C4(C(=O)OC)O5)c(O)c3C(=O)C1=CCC(C)C2O (stereo not drawn) | 2.19 µM (inactive) | 1.94 µM (inactive) | 2.07 µM (inactive) | 1.26 µM (inactive) | 1.51 µM (inactive) | 1.63 µM (inactive) | – | 1.53 µM (inactive) | 2.09 µM (inactive) | 1.36 µM (inactive) | – | 1.63 µM (inactive) | 2.02 µM (inactive) | 1.67 µM (inactive) | 1.41 µM (inactive) | 0.843 µM (active) | 0.836 µM (active) | 2.44 µM (inactive) | 0.935 µM (active) | –
Clc1nc(Nc2nc3ccccc3[nH]2)nc(Cl)c1Cc1ccccc1 | > 100 µM (inactive) | > 100 µM (inactive) | > 100 µM (inactive) | 23 µM (inactive) | 54.1 µM (inactive) | > 100 µM (inactive) | 66.4 µM (inactive) | > 100 µM (inactive) | > 100 µM (inactive) | – | > 100 µM (inactive) | > 100 µM (inactive) | > 100 µM (inactive) | > 100 µM (inactive) | > 100 µM (inactive) | > 100 µM (inactive) | > 100 µM (inactive) | > 100 µM (inactive) | > 100 µM (inactive) | –
C[C@@H](O)CCC(=O)c1ccoc1 | > 100 µM (inactive) | > 100 µM (inactive) | > 100 µM (inactive) | > 100 µM (inactive) | > 100 µM (inactive) | > 100 µM (inactive) | – | > 100 µM (inactive) | > 100 µM (inactive) | > 100 µM (inactive) | – | > 100 µM (inactive) | > 100 µM (inactive) | > 100 µM (inactive) | > 100 µM (inactive) | > 84.3 µM (inactive) | > 100 µM (inactive) | > 100 µM (inactive) | > 100 µM (inactive) | –
COC(=O)n1c(C[P+](c2ccccc2)(c2ccccc2)c2ccccc2)cc2ccccc21 | 7.26 µM (inactive) | 2.22 µM (inactive) | 2.06 µM (inactive) | 0.0318 µM (active) | 1.75 µM (inactive) | 1.13 µM (inactive) | – | 3.47 µM (inactive) | 1.73 µM (inactive) | 1.01 µM (active) | – | 3.43 µM (inactive) | 2.29 µM (inactive) | 4.16 µM (inactive) | 0.661 µM (active) | 2.67 µM (inactive) | 1.85 µM (inactive) | 3.34 µM (inactive) | 0.869 µM (active) | –
CCn1ncc2c1nc(-c1ccccc1)c[n+]2[O-] | – | > 100 µM (inactive) | – | – | > 100 µM (inactive) | 77.6 µM (inactive) | – | – | – | > 100 µM (inactive) | > 100 µM (inactive) | – | > 100 µM (inactive) | > 100 µM (inactive) | > 100 µM (inactive) | > 100 µM (inactive) | – | – | – | 46 µM (inactive)
O=S(=O)(N/N=C/c1cccc(Cl)c1Cl)c1ccccc1 | 40.8 µM (inactive) | > 100 µM (inactive) | 69.3 µM (inactive) | 14.2 µM (inactive) | 99.8 µM (inactive) | > 100 µM (inactive) | – | > 100 µM (inactive) | > 100 µM (inactive) | > 100 µM (inactive) | – | 22.6 µM (inactive) | 79.6 µM (inactive) | > 100 µM (inactive) | 58.6 µM (inactive) | 38.8 µM (inactive) | > 100 µM (inactive) | > 100 µM (inactive) | 39.9 µM (inactive) | –
C(/Cc1ccc2c(c1)OCO2)=N\N=C1NCCCCN1 | 24.8 µM (inactive) | > 100 µM (inactive) | – | 32.8 µM (inactive) | 47.8 µM (inactive) | 16.4 µM (inactive) | – | > 100 µM (inactive) | 49.2 µM (inactive) | > 100 µM (inactive) | 86.1 µM (inactive) | > 100 µM (inactive) | 51.5 µM (inactive) | > 100 µM (inactive) | > 100 µM (inactive) | 69.3 µM (inactive) | > 100 µM (inactive) | > 100 µM (inactive) | > 100 µM (inactive) | 88.3 µM (inactive)
Nc1nc(NCC2(CO)CC2)cc(=O)[nH]1 | > 100 µM (inactive) | > 100 µM (inactive) | > 100 µM (inactive) | > 100 µM (inactive) | > 100 µM (inactive) | > 100 µM (inactive) | – | > 100 µM (inactive) | > 100 µM (inactive) | > 100 µM (inactive) | > 100 µM (inactive) | > 100 µM (inactive) | > 100 µM (inactive) | > 100 µM (inactive) | > 100 µM (inactive) | > 100 µM (inactive) | > 100 µM (inactive) | – | > 100 µM (inactive) | > 100 µM (inactive)
COC(=O)C1CC2(C)C=CC1N(C(=O)OCc1ccccc1)C2 (stereo not drawn) | > 100 µM (inactive) | 88.5 µM (inactive) | > 100 µM (inactive) | – | 46.2 µM (inactive) | 63.8 µM (inactive) | – | > 100 µM (inactive) | > 100 µM (inactive) | 55.8 µM (inactive) | 87.7 µM (inactive) | 41.9 µM (inactive) | 42.4 µM (inactive) | > 100 µM (inactive) | > 100 µM (inactive) | 37.6 µM (inactive) | > 100 µM (inactive) | > 100 µM (inactive) | 24.2 µM (inactive) | 52.7 µM (inactive)
CN(C)c1n/c(=N/c2cccc(Cl)c2)ss1 | 28.1 µM (inactive) | 22.7 µM (inactive) | 19.1 µM (inactive) | 28.1 µM (inactive) | 18.8 µM (inactive) | 14.6 µM (inactive) | – | 14.1 µM (inactive) | 34.7 µM (inactive) | – | – | 16.7 µM (inactive) | 24.1 µM (inactive) | 12.1 µM (inactive) | 16.9 µM (inactive) | 4.12 µM (inactive) | 5.52 µM (inactive) | 55.2 µM (inactive) | 3.74 µM (inactive) | –
COc1ccc(C(=O)C2CCC(C(=O)O)C2)cc1 (stereo not drawn) | > 100 µM (inactive) | > 100 µM (inactive) | > 100 µM (inactive) | > 100 µM (inactive) | > 100 µM (inactive) | > 100 µM (inactive) | – | > 100 µM (inactive) | > 100 µM (inactive) | > 100 µM (inactive) | – | > 100 µM (inactive) | > 100 µM (inactive) | > 100 µM (inactive) | > 100 µM (inactive) | > 100 µM (inactive) | > 100 µM (inactive) | > 100 µM (inactive) | > 100 µM (inactive) | –
